Laboratory results reported in patent US20070069122A1, “In situ polypeptide identification” (priority 2005, published 2007).

Experiments:
transthyretin = assay: Immunohistochemical examination of kidney; assay type: in vivo; details: treated versus control rat, whole kidney sections
From the text: FIG. 8: Immunohistochemical examination of kidney from control and gentamicin-treated rat. […] High magnification photomicrographs from the cortex (C, E) vs. the medulla (D, F) reveal specific localization of TTR immunoreactivity in the cortex tubules of the treated kidney. Transthyretin immunoreactivity is visualized by the grey precipitate of diaminobenzidine-Ni counterstained with cresyl violet.

rat kidney cortex = assay: MALDI IMS profiling of rat kidney cortex thin sections, gentamicin-treated versus control; assay type: in vivo
Protocol: (§1) Animals were treated for 7 consecutive days with 100 mg/kg/day Gentamicin (dissolved in saline) or vehicle by subcutaneous (sc) injections and sacrificed 24 hours after the last application by CO2 inhalation. Immediately preceding sacrifice, terminal blood samples for clinical chemistry investigations were collected from the retroorbital sinus under isofluoran anesthesia.
Marked degeneration/regeneration of proximal tubules (grade 4) was clearly observed in rats treated with 100 mg/kg/day gentamicin for 7 days. This finding was correlated to the analysis of rat kidney thin sections by MALDI IMS. 9 control and 9 gentamicin-treated rat kidneys thin sections (3 animals, 3 sections from each animal; the thin section was spotted with matrix as shown in FIG. 1) were subjected to mass spectrometric analysis as described below.
Kidneys were dissected from rats, snap frozen on dry ice and stored at −80° C. prior to further processing. 12 μm sections were obtained on a cryostat (LEICA CM 3000, Leica Microsystems) at −18° C. and deposited on ITO-coated conductive glass slides (Indium Tin Oxide 50×75×0.9 mm, Delta Technologies). Sample preparation were performed according to published procedure (Schwartz, S. A., Reyzer, M. L., and Caprioli, R. M. (2003) Journal of Mass Spectrometry 38, 699-708). Tissue sections were then fixed by immersion in ethanol bathes and let to dry 30 minutes under vacuum. During all the process the sections were stored as much as possible under vacuum. Deposition of MALDI matrix was done manually with a pipette. 200 nL of freshly prepared sinapinic acid solution (3,5-dimethoxy-4-hydroxycinnaminic acid, Fluka, 20 mg/ml in water/acetonitrile 1:1, 0.1% trifluoroacetic acid) was deposited onto the tissue. After crystallization, an additional 200 nL was layered onto the spots and the matrix was let to dry at room temperature. The sample was then kept under vacuum if not analyzed immediately by mass spectrometry.
MALDI MS spectra were acquired using an UltraFlex MALDI ToF/ToF instrument (Bruker Daltonics) with a standard 337-nm N2 laser operating at 50Hz and a laser spot size of 50 μm. The instrument was operated in positive linear mode (2 kDa-30 kDa) at constant laser power. A total of 8 times 100 laser shots were averaged for each manually deposited matrix droplets. Spectra were externally calibrated using a protein calibration standard solution (Insulin, Ubiquitin I, Cytochrom C, Myoglobin; Bruker Daltonics). Internal calibration was performed post-acquisition using redundant known peaks from the spectra (Hemoglobin α-chain, Thymosin β-4, Cytochrome c oxidase polypeptide VIIa L, Ubiquitin, Cytochrome c oxidase polypeptide VIb).
The spectra were processed using a combination of tools available commercially and developed in-house at Vanderbilt University. Baseline subtraction, normalization, peak detection, and spectral alignment were performed using the ProTS-Data software (Efeckta Technologies, Inc.) All spectra were baseline corrected to remove contributions of chemical noise to the signal. This step was performed by locally estimating the baseline and subtracting the […] from the raw data. For the present data set the software was set to consider a window width 10 times that of the peak width to account for the differences in resolution for different m/z regions. The baseline corrected spectra were normalized in intensity by scaling the spectra to a common total ion current. Peak detection was performed using ProTS-Data and a list of 13 common peaks was selected to be internal alignment points using a quadratic calibration function. The criterion used to select common peaks were that the peak must occur in greater than 80% of the spectra to be aligned, must not have interfering or overlapping peaks, and the peaks must have a standard deviation of the observed centroid value less that 7 mass units. […]

kidney proximal tubules = assay: Histology of kidney after gentamicin treatment (model system for nephrotoxicity); assay type: in vivo, rat; details: rats, 100 mg/kg/day sc for 7 days
From the text: Permission for animal studies was obtained from the local regulatory agencies, and all study protocols were in compliance with animal welfare guidelines. Male HanBrl: Wistar rats of approximately 12 weeks of age (300g±20%) were obtained from BRL, Füllinsdorf, Switzerland. The animals were housed individually in Macrolone cages with wood shavings as bedding at […] and 50% relative humidity in a 12-hr light/dark rhythm with free access to water and Kliba 3433 rodent pellets (Provimi Kliba AG, Kaiseraugst, Switzerland).
as §1
Representative kidney samples were fixed in 10% neutral buffered formalin. All samples were processed using routine procedures and embedded in Paraplast. Tissue sections approximately 2-3 microns were cut and stained with hematoxylin-eosin (HE) or periodic acid-Schiff (PAS).
Marked degeneration/regeneration of proximal tubules (grade 4) was clearly observed in rats treated with 100 mg/kg/day gentamicin for 7 days. This finding was correlated to the analysis of rat kidney thin sections by MALDI IMS. […]

[1] = system: transthyretin (prealbumin); assay: Western blot of kidney cortex cytosolic fraction and HPLC fraction D10; assay type: in vivo, rat; details: kidney cortex cytosolic fraction
Protocol: Tissue extracts from control and treated rat kidneys were obtained by homogenization of a piece of cortex in a 10 mM Tris-HCl buffer pH 7.6 containing 250 mM sucrose and protease inhibitors (Roche Complete). The tissue extract was subjected to three successive centrifugation steps at 4° C. (10 min at 680 g; 10 min at 10 000 g; 1 h at 100 000 g) whereas the pellets were discarded and the supernatant of the last centrifugation step was kept as the kidney cytosolic fraction.
1 μl of the kidney cytosolic fraction and of the relevant HPLC fraction were subjected to electrophoresis using a 4-20% Tris-Glycine SDS-PAGE gel (Invitrogen) and the proteins were subsequently transferred to a PVDF membrane. Blots were blocked in 5% milk in PBS containing 0.1% Tween 20 for 1 h and incubated overnight at room temperature with an […] (Abcam) in PBS containing 5% milk and 0.1% Tween 20. After washing with PBS containing 0.1% Tween 20, blots were incubated for 1 h with horseradish peroxidase conjugated with an anti-sheep IgG antibody (Silenus Laboratories). Antibody binding was detected using ECL western blotting reagents (Amersham).

[2] = kidney cortex, 100 mg/kg/day sc 7 days

## Gentamicin
transthyretin
  transthyretin immunoreactivity in kidney cortex: high levels of transthyretin immunoreactivity
Rat kidney cortex; in situ and in HPLC fraction D10
  presence of species 12959 (transthyretin S28-Q146) in mass spectrum: only present in the mass spectrum of the gentamicin-treated sample
Rat kidney cortex; kidney cortex
  doubly-charged species at m/z 6480, behaviour in treated versus control cortex: showed a similar behavior
Rat kidney cortex; [2]
  Average S/N (gent), peak m/z 3343.714: 2
  Average S/N (gent), peak m/z 4010.498: 1
  Average S/N (gent), peak m/z 4107.083: 5
  Average S/N (gent), peak m/z 4141.907: 1
  Average S/N (gent), peak m/z 4181.504: 0
  Average S/N (gent), peak m/z 4497.792: 0
  Average S/N (gent), peak m/z 5096.886: 5
  Average S/N (gent), peak m/z 5222.249: 0
  Average S/N (gent), peak m/z 5301.852: 0
  Average S/N (gent), peak m/z 5355.669: 1
  Average S/N (gent), peak m/z 5478.957: 2
  Average S/N (gent), peak m/z 6080.035: 1
  Average S/N (gent), peak m/z 6498.996: 0
  Average S/N (gent), peak m/z 6912.956: 6
  Average S/N (gent), peak m/z 6938.997: 1
  Average S/N (gent), peak m/z 7083.364: 6
  Average S/N (gent), peak m/z 12959.23: 5
  Average S/N (gent), peak m/z 13004.71: 0
  Average S/N (gent), peak m/z 17100.68: 0
  Average S/N (gent), peak m/z 17176.83: 0
Kidney proximal tubules
  degeneration/regeneration of proximal tubules, grade: 4
[1]
  transthyretin abundance in kidney by Western blot, gentamicin-treated versus control rats: significantly more abundant
